Data on two compounds can be found in patent US20160120186A1, “ENHANCEMENT AND CONTROL OF SEED GERMINATION WITH COMPOSITIONS COMPRISING A TRANSITION METAL CATALYST AND AN OXIDANT” (UNIVERSITY OF SASKATCHEWAN, priority 2013, published 2016).

Assay [1] in a line: Delignification by per-acids (studies by the inventors).
A short description of assay [2]: Microbiocidal properties of per-acids (studies by the inventors).

Consider `CC(=O)O[O-].[Na+]` [peracetate], for which the “delignification of plant wall material” value in assay [1] is reported as “very efficient delignification”. Further, in assay [2], the microbiocidal properties entry is listed as “very powerful microbiocidal properties”.

Regarding `O=COO` [performate], in assay [1], the “delignification of plant wall material” value is “very efficient delignification”. Further, the microbiocidal properties result in assay [2] is “very powerful microbiocidal properties”.
